Experiments:
[1] = system: P. falciparum D10; assay: Antiplasmodial susceptibility assay (pLDH), CQ-sensitive D10 strain; type: cell-based; conditions: Plasmodium falciparum; CQ-sensitive strain D10; 72 h; pLDH readout; mean of three independent experiments in duplicate; NA = not active; read-out: IC50 P. falciparum D10
Method: (§1) Continuous in vitro Plasmodium falciparum cultures were carried out according to Trager and Jensen with slight modifications.^[ [38] ^] The CQ‐susceptible strain D10 and the CQ‐resistant strain W2 were maintained at 5% hematocrit (human type A‐positive red blood cells) in RPMI 1640 (EuroClone, Celbio) medium with the addition of 1% AlbuMax (Invitrogen, Milan, Italy), 0.01% hypoxanthine, 20 mM HEPES (at pH 7.4), and 2 mM glutamine. All the cultures were maintained at 37 °C in a low‐oxygen atmosphere consisting of 1% O2, 5% CO2, and 94% N2. Compounds were dissolved in DMSO to a stock concentration of 10 mg/ml and then diluted with complete medium to achieve the desired concentrations (final DMSO concentration <1%, which is nontoxic to the parasite). Derivatives were placed in 96‐well flat‐bottomed microplates in duplicate, and seven 1:2 serial dilutions were made directly in the plate in a volume of 100 μL. Asynchronous cultures with parasitemia of 1%–1.5% (assessed through Giemsa stained blood smears) and 1% final hematocrit were aliquoted into the plates and incubated for 72 h at 37 °C in a final volume of 200 μL/well. Uninfected erythrocytes at 2% hematocrit were used as blank. The antimalarial CQ was tested against the parasite strains as a positive control of inhibition. Parasite growth was determined spectrophotometrically (OD650) by measuring the activity of the parasite lactate dehydrogenase (pLDH), according to a modified version of the method of Makler in control and drug‐treated cultures.^[ [39] ^] The antimalarial activity was expressed as 50% inhibitory concentrations (IC50). The IC50 values were extrapolated from nonlinear regression analysis of the concentration–response curve, using the software Gen5 1.10 provided with the Synergy 4 (BioTek) reader. Each IC50 value was the mean of three independent experiments run in duplicates.

[2] = MTT cytotoxicity assay on fibroblasts; type: cell-based; conditions: human, GM-6114 embryonic human fibroblasts, compounds tested at 10 μM for 48 h, percentage of control, read-out: Cell viability GM‐6114
Method: MTT assays: MTT assays were performed using GM‐6114 (embryonic human fibroblast, ATCC, Manassas, VA). The cells were grown in DMEM with 10% FBS, 2 mM glutamine, and 1% penstrep and incubated at 37 °C in 5% CO2 in a humidified environment. All reagents were purchased from EuroClone (Milan, Italy). Briefly, the cell line was plated in 96 well plates at an adequate number to reach 80%–90% of confluence at the end of the assay. 16 h after cell plating, compounds were dissolved in DMSO to give a 10 mM stock solution, diluted in growth medium, and added at a final working concentration of 10 μM. After 48 h of incubation, 30 μL of 3‐(4,5‐dimethyl‐2‐thiazolyl)‐2,5‐diphenyl‐2H‐tetrazolium bromide (MTT) at a concentration of 2 mg mL^−1 in PBS were added in each well. Then, after further 4 h of incubation, the supernatant was removed, and 100 μL/well of DMSO were used to dissolve the formazan precipitate that could be found in vital cells. After 20 min, the results were read at 570 nm by means of a plate reader. The results were expressed as percentage of the control samples in which the cells were incubated with the same amount of DMSO but without compounds. The assays were repeated three times. In each set, every single compound was tested six times. Variation among duplicates was less than 10%.

[3] = system: L. infantum promastigotes; assay: Antileishmanial evaluation (MTT), promastigotes; type: cell-based; conditions: Leishmania infantum, 72 h, NA = not active
Method: (§2) The promastigote stage of L. infantum strain MHOM/TN/80/IPT1 (kindly provided by Dr M. Gramiccia, ISS, Roma) and L. tropica strain (MHOM/IT/2012/ISS3130) were cultured in RPMI 1640 medium (EuroClone) supplemented with 10% heat‐inactivated fetal calf serum (EuroClone), 20 mM Hepes, and 2 mM L‐glutamine at 24 °C. To determine the 50% inhibitory concentration (IC50), the MTT method was used.^[ [40], [41] ^] Compounds were dissolved in DMSO and then diluted with medium to achieve the required concentrations. Drugs were placed in 96 wells round‐bottom microplates and seven serial dilutions made. Amphotericin B was used as reference antiLeishmania drug. Parasites were diluted in complete medium to 5 × 10^6 parasites mL^−1 and 100 μL of the suspension was added to each well. The plates were incubated at 24 °C for 72 h, after the incubation 20 μL of MTT solution (5 mg mL^−1) was added to each well and incubated for additional 3 h. The plates were then centrifuged at 1000 × g for 8 min at room temperature and the supernatants were discarded. The resulting pellets were dissolved in 100 μL of lysing buffer consisting of 20% w/v of a solution of SDS (Sigma), 40% of DMF (Merck) in H2O. The absorbance was measured spectrophotometrically at a test wavelength of 550 nm and a reference wavelength of 650 nm. The results were expressed as IC50 which was the concentration of compound necessary to inhibit parasite growth by 50%; each IC50 value was the mean of separate experiments performed in duplicate.

[4] = system: L. tropica promastigotes; assay: Antileishmanial evaluation (MTT), promastigotes; type: cell-based; conditions: Leishmania tropica, 72 h, NA = not active
Method: as §2

[5] = system: P. falciparum W2; assay: Antiplasmodial susceptibility assay (pLDH), CQ-resistant W2 strain; type: cell-based; conditions: Plasmodium falciparum; CQ-resistant strain W2; 72 h; pLDH readout; mean of three independent experiments in duplicate; NA = not active; read-out: IC50 P. falciparum W2
Method: as §1

[6] = system: Leishmania donovani; set-up: method as in PMID 17949068; conditions: ref [15]; read-out: IC50 against Leishmania donovani; cited from earlier work
[7] = system: P. falciparum chloroquine (CQ)‐resistant strain; set-up: method as in PMID 17949068; conditions: ref [15]; read-out: IC50 against P. falciparum CQ‐resistant strain; cited from earlier work
[8] = system: normal myoblast L6 cells; set-up: method as in PMID 17949068; conditions: ref [15]; cited from earlier work

Row | Structure (SMILES) | IC50 [1] [µM] | viability at 48 h, 10 μM [2] [%] | IC50 [3] [µM] | IC50 [4] [µM] | IC50 [5] [µM] | IC50 [6] [µM] | IC50 [7] [µM] | cytotoxicity against normal myoblast L6 cells [8]
1 | N#Cc1c(-c2ccc(Br)cc2)n[nH]c1Nc1ccccc1 [VIc, reference compound] | 19.8 | 67 | 19.3 | 23.2 | 19.9 |  |  | 
2 | Nc1n[nH]c(N2CCC(c3ccccc3)CC2)c1S(=O)(=O)c1ccccc1 [15c, 5‐(4‐phenylpiperidin‐1‐yl)‐4‐(phenylsulfonyl)‐1H‐pyrazol‐3‐amine] | 38 | 102 | 27.4 | 44 | 51.8 |  |  | 
3 | N#Cc1c(-c2ccc(Cl)cc2)n[nH]c1Nc1ccccc1 [VIb, reference compound] | 34.3 | 70 | 19.1 | 23.2 | 32.7 |  |  | 
4 | CCCCN(CCCC)CCCNc1nc(N)nc(-c2ccccc2)c1C#N [17e, 2‐amino‐4‐((3‐(dibutylamino)propyl)amino)‐6‐phenylpyrimidine‐5‐carbonitrile] | 16.7 | 67 | 7.31 | 9.14 | 4.18 |  |  | 
5 | CCCCN(CCCC)CCNc1[nH]nc(-c2ccccc2)c1C#N [14d, 5‐((2‐(dibutylamino)ethyl)amino)‐3‐phenyl‐1H‐pyrazole‐4‐carbonitrile] | 9.52 | 71 | 7.92 | 11.6 | 9 |  |  | 
6 | O=[N+]([O-])c1ccc(-n2nc(-c3ccc(Oc4ccccc4)cc3)cc2N2CCOCC2)cc1 [II] |  |  |  |  |  | 4.8 | 3.7 | not cytotoxic
7 | CCCCN(CCCC)CCCNc1[nH]nc(-c2ccccc2)c1C#N [14e, 5‐((3‐(dibutylamino)propyl)amino)‐3‐phenyl‐1H‐pyrazole‐4‐carbonitrile] | 9.79 | 65 | 6.17 | 8.32 | 4.34 |  |  | 
8 | COc1ccc(CCNc2[nH]nc(C(C)(C)C)c2C#N)cc1OC [13a, 3‐(tert‐butyl)‐5‐((3,4‐dimethoxyphenethyl)amino)‐1H‐pyrazole‐4‐carbonitrile] | 28.6 | 82 | 40.1 | 52.2 | 25.6 |  |  | 

Source: paper PMC12368482, “Antiprotozoal Activity of Highly Substituted Pyrazole and Pyrimidine Derivatives” (Chemmedchem, 2025)
